Columns and labels:
[1] = tested on: A549; experiment: Antitumor activity against human A549/ATCC cells; format: functional, cell-based
[2] = tested on: EKVX; experiment: Antitumor activity against human EKVX cells; format: functional, cell-based
[3] = tested on: HOP-62; experiment: Antitumor activity against human HOP62 cells; format: functional, cell-based
[4] = tested on: NCI-H226; experiment: Antitumor activity against human NCI-H226 cells; format: functional, cell-based
[5] = tested on: NCI-H23; experiment: Antitumor activity against human NCI-H23 cells; format: functional, cell-based
[6] = tested on: NCI-H322M; experiment: Antitumor activity against human NCI-H322M cells; format: functional, cell-based
[7] = tested on: NCI-H460; experiment: Antitumor activity against human NCI-H460 cells; format: functional, cell-based
[8] = tested on: NCI-H522; experiment: Antitumor activity against human NCI-H522 cells; format: functional, cell-based
[9] = tested on: COLO 205; experiment: Antitumor activity against human COLO205 cells; format: functional, cell-based
[10] = tested on: HCC 2998; experiment: Antitumor activity against human HCC2998 cells; format: functional, cell-based
[11] = tested on: HCT-116; experiment: Antitumor activity against human HCT116 cells; format: functional, cell-based
[12] = tested on: HCT-15; experiment: Antitumor activity against human HCT15 cells; format: functional, cell-based
[13] = tested on: HT-29; experiment: Antitumor activity against human HT-29 cells; format: functional, cell-based
[14] = tested on: KM12; experiment: Antitumor activity against human KM12 cells; format: functional, cell-based
[15] = tested on: SW-620; experiment: Antitumor activity against human SW620 cells; format: functional, cell-based
[16] = tested on: SF-268; experiment: Antitumor activity against human SF268 cells; format: functional, cell-based
[17] = tested on: SF-295; experiment: Antitumor activity against human SF295 cells; format: functional, cell-based
[18] = tested on: SF-539; experiment: Antitumor activity against human SF539 cells; format: functional, cell-based
[19] = tested on: SNB-19; experiment: Antitumor activity against human SNB19 cells; format: functional, cell-based
[20] = tested on: SNB-75; experiment: Antitumor activity against human SNB75 cells; format: functional, cell-based
[21] = tested on: U-251; experiment: Antitumor activity against human U251 cells; format: functional, cell-based
[22] = tested on: LOX IMVI; experiment: Antitumor activity against human LOXIMVI cells; format: functional, cell-based
[23] = tested on: Malme-3M; experiment: Antitumor activity against human MALME-3M cells; format: functional, cell-based
[24] = tested on: M14; experiment: Antitumor activity against human M14 cells; format: functional, cell-based
[25] = tested on: SK-MEL-28; experiment: Antitumor activity against human SK-MEL-28 cells; format: functional, cell-based
[26] = tested on: SK-MEL-5; experiment: Antitumor activity against human SK-MEL-5 cells; format: functional, cell-based
[27] = tested on: UACC-257; experiment: Antitumor activity against human UACC257 cells; format: functional, cell-based
[28] = tested on: UACC-62; experiment: Antitumor activity against human UACC62 cells; format: functional, cell-based
[29] = tested on: IGROV-1; experiment: Antitumor activity against human IGROV1 cells; format: functional, cell-based
[30] = tested on: OVCAR-3; experiment: Antitumor activity against human OVCAR-3 cells; format: functional, cell-based
[31] = tested on: OVCAR-4; experiment: Antitumor activity against human OVCAR4 cells; format: functional, cell-based
[32] = tested on: OVCAR-5; experiment: Antitumor activity against human OVCAR5 cells; format: functional, cell-based
[33] = tested on: OVCAR-8; experiment: Antitumor activity against human OVCAR8 cells; format: functional, cell-based
[34] = tested on: SK-OV-3; experiment: Antitumor activity against human SKOV3 cells; format: functional, cell-based
[35] = Antitumor activity against human 786-O cells; format: functional, cell-based; conditions: 786-0
[36] = tested on: A498; experiment: Antitumor activity against human A498 cells; format: functional, cell-based
[37] = tested on: ACHN; experiment: Antitumor activity against human ACHN cells; format: functional, cell-based
[38] = tested on: CAKI-1; experiment: Antitumor activity against human Caki1 cells; format: functional, cell-based
[39] = tested on: RXF 393; experiment: Antitumor activity against human RXF393 cells; format: functional, cell-based
[40] = tested on: SN12C; experiment: Antitumor activity against human SN12C cells; format: functional, cell-based
[41] = tested on: TK-10; experiment: Antitumor activity against human TK10 cells; format: functional, cell-based
[42] = tested on: UO-31; experiment: Antitumor activity against human UO31 cells; format: functional, cell-based
[43] = tested on: PC-3; experiment: Antitumor activity against human PC3 cells; format: functional, cell-based
[44] = tested on: DU-145; experiment: Antitumor activity against human DU145 cells; format: functional, cell-based
[45] = tested on: MCF7; experiment: Antitumor activity against human MCF7 cells; format: functional, cell-based
[46] = tested on: MCF7; experiment: Antitumor activity against […] human MCF7 cells; format: functional, cell-based
[47] = tested on: MDA-MB-231; experiment: Antitumor activity against human MDA-MB-231 cells; format: functional, cell-based
[48] = Antitumor activity against human Hs 578T cells; format: functional, cell-based
[49] = tested on: MDA-MB-435; experiment: Antitumor activity against human MDA-MB-435 cells; format: functional, cell-based
[50] = tested on: MDA-N; experiment: Antitumor activity against human MDA-N cells; format: functional, cell-based
[51] = tested on: BT-549; experiment: Antitumor activity against human BT549 cells; format: functional, cell-based
[52] = tested on: T47D; experiment: Antitumor activity against human T47D cells; format: functional, cell-based
[53] = tested on: L1210; experiment: Cytotoxicity against mouse L1210 cells at 0.4 ug/disk by disk diffusion soft agar colony formation assay; format: functional
[54] = tested on: MC-38; experiment: Cytotoxicity against mouse C38 cells at 0.4 ug/disk by disk diffusion soft agar colony formation assay; format: functional
[55] = Cytotoxicity against mouse CFU-GM cells at 0.4 ug/disk by disk diffusion soft agar colony formation assay; format: cell-based
[56] = Cytotoxicity against human H116 cells at 0.4 ug/disk by disk diffusion soft agar colony formation assay; format: functional
[57] = Cytotoxicity against human H125 cells at 0.4 ug/disk by disk diffusion soft agar colony formation assay; format: functional
[58] = tested on: CCRF-CEM; experiment: Cytotoxicity against human CEM cells at 0.4 ug/disk by disk diffusion soft agar colony formation assay; format: functional
[59] = tested on: CCRF-CEM; experiment: Antitumor activity against human CCRF-CEM cells; format: functional, cell-based
[60] = tested on: HL-60(TB); experiment: Antitumor activity against human HL-60(TB) cells; format: functional, cell-based
[61] = tested on: K562; experiment: Antitumor activity against human K562 cells; format: functional, cell-based
[62] = tested on: MOLT-4; experiment: Antitumor activity against human MOLT4 cells; format: functional, cell-based
[63] = tested on: RPMI-8226; experiment: Antitumor activity against human RPMI8226 cells; format: functional, cell-based
[64] = tested on: SR; experiment: Antitumor activity against human SR cells; format: functional, cell-based

Compound: O=C1c2ccccc2-[n+]2ccc3c([nH]c4ccccc43)c21.[Cl-] [FASCAPLYSIN CHLORIDE]
- IC50 [1]: 4.2 µM
- IC50 [2]: 5.1 µM
- IC50 [3]: 4.7 µM
- IC50 [4]: 9.6 µM
- IC50 [5]: 4.5 µM
- IC50 [6]: 5 µM
- IC50 [7]: 4.2 µM
- IC50 [8]: 4.5 µM
- IC50 [9]: 1.2 µM
- IC50 [10]: 1.7 µM
- IC50 [11]: 0.6 µM
- IC50 [12]: > 10 µM
- IC50 [13]: > 10 µM
- IC50 [14]: 4.6 µM
- IC50 [15]: 3.7 µM
- IC50 [16]: > 10 µM
- IC50 [17]: 3.9 µM
- IC50 [18]: 4.2 µM
- IC50 [19]: 6.1 µM
- IC50 [20]: 5.4 µM
- IC50 [21]: 3.6 µM
- IC50 [22]: > 10 µM
- IC50 [23]: 0.36 µM
- IC50 [24]: 0.92 µM
- IC50 [25]: 9.3 µM
- IC50 [26]: 2 µM
- IC50 [27]: > 10 µM
- IC50 [28]: 4.9 µM
- IC50 [29]: 4.5 µM
- IC50 [30]: 1.5 µM
- IC50 [31]: 5.3 µM
- IC50 [32]: 4.4 µM
- IC50 [33]: > 10 µM
- IC50 [34]: > 10 µM
- IC50 [35]: 6.7 µM
- IC50 [36]: 5.2 µM
- IC50 [37]: > 10 µM
- IC50 [38]: 6.1 µM
- IC50 [39]: 3.5 µM
- IC50 [40]: 4.2 µM
- IC50 [41]: 5.4 µM
- IC50 [42]: > 10 µM
- IC50 [43]: > 10 µM
- IC50 [44]: 4.9 µM
- IC50 [45]: > 10 µM
- IC50 [46]: > 10 µM
- IC50 [47]: > 10 µM
- IC50 [48]: > 10 µM
- IC50 [49]: 0.56 µM
- IC50 [50]: 0.56 µM
- IC50 [51]: > 10 µM
- IC50 [52]: > 10 µM
- Activity [53]: 400 Zone units
- Activity [54]: 500 Zone units
- Activity [55]: 200 Zone units
- Activity [56]: 500 Zone units
- Activity [57]: 400 Zone units
- Activity [58]: 300 Zone units
- IC50 [59]: > 10 µM
- IC50 [60]: > 10 µM
- IC50 [61]: > 10 µM
- IC50 [62]: > 10 µM
- IC50 [63]: > 10 µM
- IC50 [64]: > 10 µM
